According to PMC5487681, “Identification of Antifungal H^+-ATPase Inhibitors with Effect on Plasma Membrane Potential” (Antimicrobial Agents and Chemotherapy, 2017):
≈ marks a conversion by molar mass, not a printed value. Like-named read-outs stand apart in the source and are kept apart here. Residues, ends and D or L forms follow the SMILES beside them.

What was measured:
C. albicans Pma1 = target: T1, C. albicans Pma1 (Candida albicans, UniProt P28877); assay: ATP hydrolysis assay, C. albicans Pma1; format: biochemical
T1 construct: endogenous in cells
Experimental: A 100-ml overnight culture in YPD medium [10 g/liter yeast extract (BD, Sparks, MD), 20 g/liter Bacto peptone (BD), 20 g/liter D-(+)-glucose] was transferred to 1 liter YPD medium and grown at room temperature and 150 rpm for 18 h for wild-type S. cerevisiae (ATCC 9763) and 7 h for C. albicans. The cells were harvested and washed in Milli-Q H2O by centrifugation at 3,360 × g. The cells were glucose activated by the addition of 10% D-(+)-glucose for 10 min while shaking. The cells were then centrifuged at 3,360 × g for 3 min and frozen. Cells (60 to 80 g, wet weight) were then disrupted by bead beating (BioSpec, Bartlesville, OK) and processed as described in reference to prepare the plasma membranes. […] All batches were validated by ATPase hydrolysis activity, pH optimum, and orthovanadate sensitivity.
The protein activity levels were determined by measuring the amount of free phosphate produced from the ATP hydrolysis reaction. The assay was performed as described in reference. Each well contained ATPase enzyme, 2 μl of inhibitor (usually in the range of 333 to 0.01 μM) dissolved in dimethyl sulfoxide (DMSO) (Duchefa Biochemie, Haarlem, The Netherlands), and an assay buffer dependent on the enzyme for a final volume of 60 μl. Possible compound precipitation in the assay buffer was monitored using a Nephelostar plate reader measuring turbidity, and the information was taken into account in the IC50 determination. Pma1 assay buffer consisted of 20 mM 3-(N-morpholino)propanesulfonic acid (MOPS)–NaOH, pH 6.5 or 7.0, 8 mM MgSO4, 50 mM KNO3 (a vacuolar ATPase inhibitor), 25 mM sodium azide (a mitochondrial ATPase inhibitor), and 250 μM sodium molybdate (an acid phosphatase inhibitor). SERCA buffer consisted of 9 mM MOPS-NaOH, pH 7, 2.7 mM MgCl2, 90 μM CaCl2, and 72 mM KCl. Na^+,K^+-ATPase buffer consisted of 30 mM MOPS-NaOH, pH 7, 40 mM NaCl, 4 mM MgCl2, and 20 mM KCl. The concentration of protein was adjusted to obtain a signal of the optical density at 860 nm (OD860) of between 0.5 and 1.0 in the untreated samples (for all Pma1 batches, ∼1 to 2 μg/well; for SERCA and Na^+,K^+-ATPase, ∼0.1 to 0.2 μg/well). BM2 ([…]-NH2, D-form amino acids) was custom synthesized by Peptide 2.0 (Chantilly, VA).

Na^+,K^+-ATPase = target: T2, Na^+,K^+-ATPase (Sus scrofa, UniProt P05024); assay: ATP hydrolysis assay, Na+,K+-ATPase; format: biochemical, porcine
T2 construct: from tissue; host or cells: porcine kidney (gift of Natalya Fedosova, Aarhus University)
Experimental: (§1) Rabbit sarcoplasmic reticulum membranes containing sarcoplasmic endoplasmic reticulum Ca^2+-ATPase (SERCA) were kindly provided by Claus E. Olesen and Jesper V. Møller, Aarhus University, and prepared as described in reference. Porcine kidney Na^+,K^+-ATPase was kindly provided by Natalya Fedosova, Aarhus University, and prepared as described in reference.
(§2) The protein activity levels were determined by measuring the amount of free phosphate produced from the ATP hydrolysis reaction. The assay was performed as described in reference. Each well contained ATPase enzyme, 2 μl of inhibitor (usually in the range of 333 to 0.01 μM) dissolved in dimethyl sulfoxide (DMSO) (Duchefa Biochemie, Haarlem, The Netherlands), and an assay buffer dependent on the enzyme for a final volume of 60 μl. Possible compound precipitation in the assay buffer was monitored using a Nephelostar plate reader measuring turbidity, and the information was taken into account in the IC50 determination. Pma1 assay buffer consisted of 20 mM 3-(N-morpholino)propanesulfonic acid (MOPS)–NaOH, pH 6.5 or 7.0, 8 mM MgSO4, 50 mM KNO3 (a vacuolar ATPase inhibitor), 25 mM sodium azide (a mitochondrial ATPase inhibitor), and 250 μM sodium molybdate (an acid phosphatase inhibitor). SERCA buffer consisted of 9 mM MOPS-NaOH, pH 7, 2.7 mM MgCl2, 90 μM CaCl2, and 72 mM KCl. Na^+,K^+-ATPase buffer consisted of 30 mM MOPS-NaOH, pH 7, 40 mM NaCl, 4 mM MgCl2, and 20 mM KCl. The concentration of protein was adjusted to obtain a signal of the optical density at 860 nm (OD860) of between 0.5 and 1.0 in the untreated samples (for all Pma1 batches, ∼1 to 2 μg/well; for SERCA and Na^+,K^+-ATPase, ∼0.1 to 0.2 μg/well).

[1] = tested on: Aspergillus flavus ATCC MYA-1005; assay: microbe, parasite or virus in culture; format: cell-based; details: read-out: MIC for growth inhibition, A. flavus
Experimental: (§3) The following fungal isolates were used: Saccharomyces cerevisiae ATCC 9763, Candida albicans SC5314, Candida parapsilosis ATCC 22019, Candida tropicalis Ct016, Candida glabrata ATCC 90030, Aspergillus fumigatus ATCC 13073, and Aspergillus flavus ATCC MYA-1005. Frozen stocks of yeast isolates in glycerol (final concentration, 20%) were prepared by growing the cells to log phase in YPD medium at 30°C and 150 rpm. Frozen stocks of mold spores were prepared by harvesting spores from 7-day-old potato glucose agar plates in phosphate-buffered saline, 0.1% Tween 80 and aliquoting these spores in the presence of glycerol (final concentration, 20%). The cells were stored at −80°C. The cells or spores were thawed and diluted to a final concentration of 0.5 × 10^5 to 2.5 × 10^5 CFU/ml in sterile Milli-Q H2O. […] The plate was incubated for 20 to 24 h at 34°C (72 h for molds), and the OD490 was measured on a Victor X5 (PerkinElmer) plate reader. Mold growth assay plates were also visually inspected. The MIC was defined as the lowest concentration inhibiting the visual growth of the microorganism. Standard errors were typically below 5%.

[2] = tested on: Saccharomyces cerevisiae ATCC 9763; assay: microbe, parasite or virus in culture; format: cell-based; details: read-out: MIC for growth inhibition, S. cerevisiae
Experimental: as §3

Ca^2+-ATPase (SERCA1a) = Ca^2+-ATPase (SERCA1a) (Oryctolagus cuniculus, UniProt P04191); assay: ATP hydrolysis assay, SERCA; format: biochemical, rabbit
Experimental: as §1, §2

[3] = Compound precipitation in the fungal growth medium; format: physicochemical; details: fungal growth medium (RPMI), footnotes of Table 1
Experimental: as §3

Candida spp. = assay: Fungal growth inhibition, Candida spp. (text summary of Table 1); format: cell-based; details: 38 μM highest concentration tested for compounds 4 and 8, read-out: MIC for several of the Candida spp. tested
Experimental: as §3

[4] = Table 2, pH 7, n = 2, read-out: IC50 for ATP hydrolysis, C. albicans Pma1
[5] = read-out: IC50 for the Pma1 enzyme from C. albicans
[6] = Table 1, ATP hydrolysis at pH 7.4 (compounds marked b), read-out: IC50 Na^+,K^+-ATPase
[7] = Table 1, ATP hydrolysis at pH 7, read-out: IC50 Na^+,K^+-ATPase
[8] = Saccharomyces cerevisiae, ATCC9763, Table 3
[9] = Table 2, pH 7, n = 2, porcine kidney, read-out: IC50 for ATP hydrolysis, Na^+,K^+-ATPase
[10] = Table 2, pH 7, n = 2, rabbit SERCA1a, read-out: IC50 for ATP hydrolysis, SERCA

Chain of Ca^2+-ATPase (SERCA1a) (P04191 1-994 isoform P04191-2): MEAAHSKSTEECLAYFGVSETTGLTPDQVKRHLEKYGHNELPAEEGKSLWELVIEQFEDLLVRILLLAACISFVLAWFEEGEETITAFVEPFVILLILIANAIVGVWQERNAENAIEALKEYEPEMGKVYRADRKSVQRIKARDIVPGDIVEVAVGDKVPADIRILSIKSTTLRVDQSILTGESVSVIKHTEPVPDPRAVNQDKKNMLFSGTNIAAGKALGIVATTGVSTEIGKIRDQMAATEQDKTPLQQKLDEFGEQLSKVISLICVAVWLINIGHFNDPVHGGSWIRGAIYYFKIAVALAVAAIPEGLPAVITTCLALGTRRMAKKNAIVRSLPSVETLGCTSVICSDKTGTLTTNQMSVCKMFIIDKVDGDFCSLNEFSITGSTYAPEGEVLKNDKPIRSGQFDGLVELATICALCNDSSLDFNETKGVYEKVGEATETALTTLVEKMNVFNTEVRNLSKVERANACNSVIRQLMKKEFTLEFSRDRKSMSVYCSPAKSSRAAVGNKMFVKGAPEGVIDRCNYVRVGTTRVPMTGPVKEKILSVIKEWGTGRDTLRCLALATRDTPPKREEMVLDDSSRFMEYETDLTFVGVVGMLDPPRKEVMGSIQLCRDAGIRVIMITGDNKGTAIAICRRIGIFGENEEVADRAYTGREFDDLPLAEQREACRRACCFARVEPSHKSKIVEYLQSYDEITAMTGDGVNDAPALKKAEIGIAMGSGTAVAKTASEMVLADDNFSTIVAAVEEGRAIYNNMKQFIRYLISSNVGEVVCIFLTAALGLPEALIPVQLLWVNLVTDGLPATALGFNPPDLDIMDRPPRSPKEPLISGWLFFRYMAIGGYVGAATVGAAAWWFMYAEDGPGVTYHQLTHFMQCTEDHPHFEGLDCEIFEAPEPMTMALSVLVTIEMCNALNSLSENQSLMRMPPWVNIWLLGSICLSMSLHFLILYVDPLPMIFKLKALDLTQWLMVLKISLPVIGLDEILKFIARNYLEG
T1 sequence (P28877 whole entry): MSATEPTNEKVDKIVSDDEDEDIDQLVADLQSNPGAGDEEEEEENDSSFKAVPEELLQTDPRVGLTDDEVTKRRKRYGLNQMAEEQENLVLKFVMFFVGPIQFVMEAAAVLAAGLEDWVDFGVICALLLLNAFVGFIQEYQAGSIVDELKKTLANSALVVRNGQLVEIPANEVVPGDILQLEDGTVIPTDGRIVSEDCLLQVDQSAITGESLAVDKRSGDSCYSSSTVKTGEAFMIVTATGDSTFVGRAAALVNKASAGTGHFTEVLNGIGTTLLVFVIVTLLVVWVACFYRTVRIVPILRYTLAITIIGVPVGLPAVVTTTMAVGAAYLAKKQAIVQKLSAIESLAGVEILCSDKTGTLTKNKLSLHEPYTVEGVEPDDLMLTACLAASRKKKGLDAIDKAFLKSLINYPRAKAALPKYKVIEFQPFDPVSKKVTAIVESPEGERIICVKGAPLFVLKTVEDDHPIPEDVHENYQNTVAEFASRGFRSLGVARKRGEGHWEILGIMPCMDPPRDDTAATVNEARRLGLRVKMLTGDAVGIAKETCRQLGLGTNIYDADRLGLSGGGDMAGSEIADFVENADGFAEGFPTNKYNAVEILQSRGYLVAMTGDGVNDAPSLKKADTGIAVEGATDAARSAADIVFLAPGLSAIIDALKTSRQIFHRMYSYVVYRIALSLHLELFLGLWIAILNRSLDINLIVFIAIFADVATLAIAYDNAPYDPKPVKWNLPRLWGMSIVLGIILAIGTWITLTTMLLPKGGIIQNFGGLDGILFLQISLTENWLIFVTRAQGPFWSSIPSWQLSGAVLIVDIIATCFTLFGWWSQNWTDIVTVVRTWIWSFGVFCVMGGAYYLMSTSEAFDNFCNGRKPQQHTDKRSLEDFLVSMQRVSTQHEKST

Row | Compound | IC50 (C. albicans Pma1; [4]) [µM] | IC50 (Ca^2+-ATPase (SERCA1a)) [µM] | Compound precipitation observed in the growth medium at concentrations down to [3] | MIC (Candida spp.) [µM] | IC50 (Na^+,K^+-ATPase; [7]) [µM] | MIC ([1]; Aspergillus flavus, Table 3) [µM] | MIC [2, 8] [µM] | IC50 (Na^+,K^+-ATPase; [9]) [µM] | other results
1 | N=C(N)NCCC[C@@H](N)C(=O)N[C@H](CCCNC(=N)N)C(=O)N[C@H](CCCNC(=N)N)C(=O)N[C@H](Cc1ccccc1)C(=O)N[C@H](Cc1c[nH]c2ccccc12)C(=O)N[C@H](Cc1c[nH]c2ccccc12)C(=O)N[C@H](Cc1ccccc1)C(=O)N[C@H](CCCNC(=N)N)C(=O)N[C@H](CCCNC(=N)N)C(=O)N[C@H](CCCNC(=N)N)C(N)=O [BM2, reference compound] (HELM PEPTIDE1{[dR].[dR].[dR].[dF].[dW].[dW].[dF].[dR].[dR].[dR].[am]}$$$$V2.0) | 0.9 ± 0.2 | 1.1 | – | – | – | – | – | – | IC50 (C. albicans Pma1; [5]): 0.9 µM; IC50 (Na^+,K^+-ATPase): 10.4 ± 2.7 µM; MIC ([1]; ATCC MYA-1005): >150 µM; MIC ([2]; ATCC 9763): 4.7 µM (≈ 7.62 µg/mL)
2 | O=C1/C(=C/c2ccc(-c3cc(Cl)ccc3Cl)o2)C=C(c2ccccc2)N1c1ccccc1O [Compound 1] | – | 17.5 ± 4.7 | c Compound precipitation was observed in the growth medium at concentrations down to 15 μM. | > 150 | – | – | – | – | IC50 (Na^+,K^+-ATPase; [6]): 13.2 ± 0.91 µM
3 | COc1ccc(-c2cc(C(=O)Nc3ccc(C(C)C)cc3)c3ccccc3n2)c(OC)c1 [Compound 3] | – | > 105 | e Compound precipitation was observed in the growth medium at concentrations down to 150 μM. | > 150 | > 105 | – | – | – | –
4 | CC1CCCCN1CC(O)Cn1c(-c2ccccc2)c(-c2ccccc2)c2ccc3ccccc3c21 (stereo not drawn) [Compound 4] | – | 4.1 ± 0.2 | d Compound precipitation was observed in the growth medium at concentrations down to 48 μM. | > 38 | – | – | – | – | IC50 (Na^+,K^+-ATPase; [6]): 15 ± 7.2 µM
5 | CCOc1ccc2nc3cc(NC(=O)c4cccc(Br)c4)ccc3c(N)c2c1 [Compound 5] | – | 0.46 ± 0.04 | f Compound precipitation was observed in the growth medium at concentrations down to 75 μM. | – | – | – | – | – | IC50 (Na^+,K^+-ATPase; [6]): 1.3 ± 0.3 µM
6 | Cc1c(-c2ccccc2)[o+]c2ccccc2c1C#Cc1ccccc1 [Compound 6] | – | – | d Compound precipitation was observed in the growth medium at concentrations down to 48 μM. | > 150 | – | – | – | – | IC50 (Na^+,K^+-ATPase; [6]): 3.5 ± 3.7 µM
7 | Oc1cccc(Nc2nc(-c3ccc(Cl)c(Cl)c3)cs2)c1 [Compound 7] | – | – | d Compound precipitation was observed in the growth medium at concentrations down to 48 μM. | – | – | – | – | – | IC50 (Na^+,K^+-ATPase; [6]): 5.8 ± 0.8 µM
8 | COc1ccc(-c2cc(C(=O)Nc3ccc4c(c3)OCCO4)c3ccccc3n2)c(OC)c1 [Compound 8] | – | > 105 | d Compound precipitation was observed in the growth medium at concentrations down to 48 μM. | > 38 | > 105 | – | – | – | –
9 | COc1cccc(Nc2nc(Cl)nc(Nc3cccc(OC)c3)n2)c1 [Compound 9] | – | > 105 | d Compound precipitation was observed in the growth medium at concentrations down to 48 μM. | > 150 | > 105 | – | – | – | –
10 | CCCCOc1ccc(C2C(C#N)=C(N)Oc3cc(O)ccc32)cc1 (stereo not drawn) [Compound 11] | – | 15.7 ± 2 | d Compound precipitation was observed in the growth medium at concentrations down to 48 μM. | > 150 | 30.3 ± 2.4 | – | – | – | –
11 | COc1ccc(Cn2c(SCc3cc(C)ccc3C)nc3cc(OC)c(OC)cc3c2=N)cc1 [Compound 12] | – | – | e Compound precipitation was observed in the growth medium at concentrations down to 150 μM. | > 150 | 58.7 ± 40.2 | – | – | – | –
12 | CCCCc1nc2sc3c(NCCCN(C)C)ncnc3c2c2c1CCCC2 [Compound 14] | 17 ± 0.9 | 42 ± 8 | – | – | 18.4 ± 2.1 | 75 (≈ 29.8 µg/mL) | 7.5 (≈ 2.98 µg/mL) | – | IC50 (C. albicans Pma1; [5]): 17 µM
13 | CCCCc1nc2sc3c(NCCCN(C)C)nc(SC)nc3c2c2c1CCC2 [Compound 15] | 6.3 ± 0.5 | – | – | – | – | 24 (≈ 10.3 µg/mL) | 1.5 (≈ 0.644 µg/mL) | 4.1 ± 0.6 | IC50 (Ca^2+-ATPase (SERCA1a); [10]): 4.5 µM
14 | CN(C)CCCNc1ncnc2c1sc1nc(N3CCCCC3)c3c(c12)CCCC3 [Compound 16] | 9.5 ± 1 | 11.1 | – | – | – | 47 (≈ 20 µg/mL) | 3.2 (≈ 1.36 µg/mL) | 9.1 ± 1 | –
15 | CCc1nc2sc3c(NCCCN(C)C)ncnc3c2c2c1CCCC2 [Compound 17] | 151 ± 6.2 | > 333 | – | – | – | > 150 | 47 (≈ 17.4 µg/mL) | > 333 | –
16 | CN(C)CCCNc1ncnc2c1sc1nc(-c3ccccc3)c3c(c12)CCC3 [Compound 18] | 22.9 ± 2 | 69.5 ± 6.9 | – | – | – | > 75 | 24 (≈ 9.69 µg/mL) | 85.7 ± 26.6 | –
17 | CCN(CC)CCCNc1nc(SC)nc2c1sc1nc(-c3ccccc3)c3c(c12)CCC3 [Compound 19] | 8.7 ± 0.5 | – | – | – | – | 12 (≈ 5.73 µg/mL) | 3.7 (≈ 1.77 µg/mL) | 5.5 ± 1.8 | IC50 (C. albicans Pma1; [5]): 9 µM; IC50 (Ca^2+-ATPase (SERCA1a); [10]): 4.4 ± 0.3 µM
18 | O=c1c2ccccc2[se]n1-c1ccccc1 [Ebselen, reference compound] | – | – | – | – | – | 24 (≈ 6.58 µg/mL) | 7.5 (≈ 2.06 µg/mL) | 0.16 ± 0.01 | IC50 (C. albicans Pma1; IC50 for ATP hydrolysis, C. albicans Pma1, Table 2, pH 7, n = 2): 0.51 ± 0.04 µM; IC50 (Ca^2+-ATPase (SERCA1a); [10]): 0.12 µM
